Legend:
MCF7 [1] = test: Percentage intracellular concentration in MCF7 breast cancer cells; type: ADME, cell-based; conditions: human
NCI/ADR-RES [2] = test: Tumor killing activity in MCF7/ADR drug-resistant cell line with 10 uM verapamil (P-gp inhibitor); type: functional, cell-based; conditions: Homo sapiens
NCI/ADR-RES [3] = test: Tumor killing activity in MCF7/ADR drug-resistant cell line by MTT assay; type: functional, cell-based; conditions: Homo sapiens
MCF7 [4] = test: Cytotoxicity on drug-sensitive MCF7 cells; type: functional, cell-based; conditions: Homo sapiens
AT3B-1 [5] = test: Tumor killing activity in AT3B1 drug-resistant cell line by MTT assay; type: functional, cell-based; conditions: Rattus norvegicus
AT3B-1 [6] = test: Percentage intracellular concentration in AT3B1 drug-resistant cell line; type: ADME, cell-based, Homo sapiens
AT3B-1 [7] = test: Inhibition of tumor killing activity in AT3B1 drug-resistant cell line with 10 uM verapamil (P-gp inhibitor); type: functional, cell-based; conditions: Rattus norvegicus
NCI/ADR-RES [8] = test: Percentage intracellular concentration in MCF7/ADR drug-resistant cell line; type: ADME, cell-based; conditions: human
MCF7 [9] = test: Tumor killing activity in MCF7 breast cancer cells by MTT assay; type: functional, cell-based; conditions: Homo sapiens

**Q.** What does the source list for COc1cccc2c1C(=O)c1c(O)c3c(c(O)c1C2=O)C[C@@](O)(C(=O)CO)C[C@@H]3O[C@H]1C[C@H](N)[C@H](O)[C@H](C)O1 [DOXORUBICIN]?
**A.** permeability (MCF7 [1]): 92.3%; IC50 (NCI/ADR-RES [2]): 6.7 µM; IC50 (NCI/ADR-RES [3]): 45.2 µM; Activity (MCF7 [4]): Dose-dependent effect; IC50 (AT3B-1 [5]): 168 µM; permeability (AT3B-1 [6]): 7.9%; IC50 (AT3B-1 [7]): 42.4 µM; permeability (NCI/ADR-RES [8]): 4.5%

**Q.** Which permeability (MCF7 [1]) does the source give for COc1cccc2c1C(=O)c1c(O)c3c(c(O)c1C2=O)C[C@@](O)(C(=O)CO)C[C@@H]3O[C@H]1C[C@H](NC(=O)C2CCC(CN3C(=O)CC(SC[C@H](N)C(=O)NCC(=O)NCC(=O)NCC(=O)N[C@@H](Cc4ccc(O)cc4)C(=O)NCC(=O)N[C@@H](CCCN=C(N)N)C(=O)N[C@@H](CCCCN)C(=O)N[C@@H](CCCCN)C(=O)N[C@@H](CCCN=C(N)N)C(=O)N[C@@H](CCCN=C(N)N)C(=O)N[C@@H](CCC(N)=O)C(=O)N[C@@H](CCCN=C(N)N)C(=O)N[C@@H](CCCN=C(N)N)C(=O)N[C@@H](CCCN=C(N)N)C(=O)O)C3=O)CC2)[C@H](O)[C@H](C)O1 (some centres not stated) here?
**A.** 84.6%

**Q.** What about the IC50 (NCI/ADR-RES [2]) of the same molecule?
**A.** 5.2 µM

**Q.** What about the IC50 (NCI/ADR-RES [3]) of the same molecule?
**A.** 5.8 µM

**Q.** What about the Activity (MCF7 [4]) of the same molecule?
**A.** Dose-dependent effect

**Q.** And the IC50 (AT3B-1 [5])?
**A.** 23.4 µM

**Q.** What about the permeability (AT3B-1 [6]) of the same molecule?
**A.** 49.3%

**Q.** What about the IC50 (AT3B-1 [7]) of the same molecule?
**A.** 23.8 µM

**Q.** What about the permeability (NCI/ADR-RES [8]) of the same molecule?
**A.** 58.4%

**Q.** And the IC50 (MCF7 [9])?
**A.** 0.28 µM

From ChEMBL document CHEMBL1140419, “Synthesis of doxorubicin-peptide conjugate with multidrug resistant tumor cell killing activity” (Bioorg Med Chem Lett, 2005)
